What was measured:
[1] = tested on: HT29 cancer cells; experiment: Anticancer activity, IC50 from dose response curves, HT29 cells; format: cell-based; settings: concentrations 100, 50, 25, 10, 5 and 1 μM
Procedure: (§1) All Dose response curves were prepared for each of the chosen complexes, as well as positive controls, in order to obtain IC50 values. The concentrations used were 100, 50, 25, 10, 5 and 1 μM. IC50 values were calculated from the log-dose response curves using GraphPad Prism 4.

[2] = tested on: Hela cancer cells; experiment: Anticancer activity, IC50 from dose response curves, HeLa cells; format: cell-based; settings: concentrations 100, 50, 25, 10, 5 and 1 μM
Procedure: as §1

[3] = tested on: MCF7 cancer cells; experiment: Anticancer activity, IC50 from dose response curves, MCF7 cells; format: cell-based; settings: concentrations 100, 50, 25, 10, 5 and 1 μM
Procedure: as §1

[4] = tested on: MCF7 cells; experiment: Percent inhibition of MCF7 cells at single concentration, 48 h; format: cell-based
[5] = tested on: HeLa cells; experiment: Percent inhibition of HeLa cells at single concentration, 48 h; format: cell-based
Procedure: The anticancer activity of cis-diammineoxalatochloronitroplatinum(IV) (complex I-A) has been compared to cisplatin against two cell lines for 48 h at 77 uM.

[6] = physchem; settings: water
[7] = Thermal stability of the solid complex; format: physicochemical
[8] = Stability: reduction by cysteine followed by positive ion mass spectra; format: physicochemical; settings: water/37° C./18 h, presence of cysteine
From the text: This observation implies that certain platinum(IV) complexes described herein are capable of converting to their corresponding platinum(II) complexes.

| Compound | IC50 [1] | IC50 [2] | IC50 [3] | Percent inhibition of MCF7 cells ([4]; 48 h at 50 uM) | Percent inhibition of MCF7 cells ([4]; 48 h at 77 uM) | Percent inhibition of HeLa cells ([5]; 48 h at 50 uM) | Percent inhibition of HeLa cells ([5]; 48 h at 77 uM) | solubility [6] | Solid complex stable up to (temperature) [7] | Reduction to platinum(II) complex upon addition of cysteine [8] |
| --- | --- | --- | --- | --- | --- | --- | --- | --- | --- | --- |
| O=C1[O][Pt-2]2([NH2+]C3CCCC[C@H]3[NH2+]2)[O]C1=O (stereo in doubt) [Oxaliplatin, (trans-l-1,2-diaminocyclohexane)oxalatoplatinum(II)] | 12.3 µM | 11.9 µM | 6.21 µM |  |  |  |  |  |  |  |
| N.N.[Cl][Pt][Cl] [Cisplatin, cisplatin] | 8.11 µM | 10.7 µM | 14.1 µM | 72% | 76% | 86% | 87% |  |  |  |
| [NH2][Pt]1([NH2])([Cl])([N+](=O)[O-])[O]C(=O)C(=O)[O]1 [I-A, cis-diammineoxalatochloronitroplatinum(IV)] |  |  |  |  |  |  |  | 2400 µg/mL |  |  |
| NC1CCCCC1N.O=C([O-])C(=O)[O-].O=N[O-].[Cl-].[Pt+4] (stereo not drawn) [II-A, (trans-l-1,2-diaminocyclohexane)oxalatochloronitro-platinum(IV)] | 3.07 µM | 4.81 µM | 5.86 µM |  |  |  |  |  | up to 210 °C | oxaliplatin is formed |
